This test has as its target F508del-CFTR (Homo sapiens, UniProt P13569, DEL508-508). The test is described as follows: HS-YFP-based assay for CFTR activity on F508del-CFTR FRT cells rescued at 32 °C for 24 h. Format: cell-based. Also on record: expressed in transfected cells; key to Emax: fold increase in F508del-CFTR rescue relative to hit 3 (normalized). Conditions: for EC50: F508del-CFTR FRT cells rescued at 32 °C for 24 h, plus forskolin; for EC50 / Emax (FRT F508del-CFTR): mean ± SD (n = 3–6), n.a.: not active (up to 20 μM); for Emax: supplementary csv, same data as Tables 1–3; for Emax (FRT F508del-CFTR): normalized for the activity of analogue 3. How it is done:
The chemical library was screened in duplicate on a Fischer rat thyroid (FRT) cell line, stably coexpressing F508del-CFTR and the halide-sensitive yellow fluorescent protein, HS-YFP.[23],[34],[35] To overcome the F508del trafficking defect, cells were initially incubated for 24 h at 32 °C and then acutely treated (15–30 min) with a single compound (5 μM) in combination with forskolin (10 μM). After stimulation, the F508del-CFTR activity in the plasma membrane was calculated by measuring the rate of fluorescence quenching arising from iodide influx.[34] This activity was compared to that of wells containing forskolin alone (negative control) or forskolin plus VX-770 (1 μM, as a positive control) (Figure 2A). Analysis of screening performance with the Z′ method gave a score of 0.6, which can be considered optimal for this type of assay. The activity scores for each compound were then plotted as an ordered distribution (Figure 2B). All compounds whose average activity calculated from the two rounds of screening was greater than 185% with respect to the negative control (i.e., forskolin alone) were considered as primary hits.
The primary hits were confirmed by testing them at different concentrations, in order to extrapolate the dose–response relationship. First, we focused on the F508del mutant. The compounds were tested in the low micromolar range, in the presence of forskolin (10 μM), on F508del-CFTR FRT cells following rescue of the trafficking defect by low-temperature incubation, as done for the primary screening. The most interesting hits were subsequently tested for their ability to overcome the more severe gating defect of pure class III mutant using FRT cells stably expressing G551D-CFTR (Figure 3B).
The role of the heteroaryl group (A) acylating the position 2 of the tetrahydro-γ-carboline was initially explored by modifying the substituent on the pyrazolyl residue and replacing the pyrazole with other rings, while keeping the 8-methoxy carboline moiety unmodified. The activity of each compound is described in terms of normalized maximal efficacy (Emax), the maximum fold increase in the rescue of F508del-CFTR activity with respect to hit 3, and potency (EC50), the concentration producing half-maximal efficacy.
FRT cells stably expressing mutant F508del-CFTR or G551D-CFTR and the halide-sensitive yellow fluorescent protein (HS-YFP) YFP-H148Q/I152L and CFBE41o-cells stably expressing F508del-CFTR and HS-YFP were generated as previously described.[21],[57] FRT cells were cultured using the Coon’s modification of Ham’s F12 medium, while CFBE41o-cells were cultured in the modified Eagle’s medium. Media were supplemented with 10% fetal calf serum, 2 mM L-glutamine, 100 U/mL of penicillin, and […] of streptomycin. For functional assays of CFTR activity based on the HS-YFP assays, CFBE41o- or FRT cells were plated (50,000 cells/well) on clear-bottom 96-well black microplates (Corning Life Sciences, Acton, MA). The following day, cells were assayed. In the case of FRT cells expressing F508del-CFTR, plates were kept at 32 °C (or treated with correctors at 37 °C where indicated) for an additional 24 h to rescue the mutant trafficking defect, before assays.
Prior assay, cells were washed with phosphate-buffered saline (PBS) containing (in mM) 137 NaCl, 2.7 KCl, 8.1 Na2HPO4, 1.5 KH2PO4, 1 CaCl2, and 0.5 MgCl2. Cells were then incubated for 25 min with 60 μL of PBS plus forskolin (20 μM) and test compounds (at the desired concentration) to stimulate mutant CFTR. Cells were then transferred to microplate readers (FluoStar Optima; BMG Labtech, Offenburg, Germany) for CFTR activity determination. The plate readers were equipped with high-quality excitation (HQ500/20X: 500 ± 10 nm) and emission (HQ535/30M: 535 ± 15 nm) filters for YFP (Chroma Technology). […]

19 compounds from PMC8011931, “Identification, Structure–Activity Relationship, and Biological Characterization of 2,3,4,5-Tetrahydro-1H-pyrido[4,3-b]indoles as a Novel Class of CFTR Potentiators” (Journal of Medicinal Chemistry, 2020) can be followed below.

Chain of F508del-CFTR (P13569 with tags, fused parts or gaps DEL508-508): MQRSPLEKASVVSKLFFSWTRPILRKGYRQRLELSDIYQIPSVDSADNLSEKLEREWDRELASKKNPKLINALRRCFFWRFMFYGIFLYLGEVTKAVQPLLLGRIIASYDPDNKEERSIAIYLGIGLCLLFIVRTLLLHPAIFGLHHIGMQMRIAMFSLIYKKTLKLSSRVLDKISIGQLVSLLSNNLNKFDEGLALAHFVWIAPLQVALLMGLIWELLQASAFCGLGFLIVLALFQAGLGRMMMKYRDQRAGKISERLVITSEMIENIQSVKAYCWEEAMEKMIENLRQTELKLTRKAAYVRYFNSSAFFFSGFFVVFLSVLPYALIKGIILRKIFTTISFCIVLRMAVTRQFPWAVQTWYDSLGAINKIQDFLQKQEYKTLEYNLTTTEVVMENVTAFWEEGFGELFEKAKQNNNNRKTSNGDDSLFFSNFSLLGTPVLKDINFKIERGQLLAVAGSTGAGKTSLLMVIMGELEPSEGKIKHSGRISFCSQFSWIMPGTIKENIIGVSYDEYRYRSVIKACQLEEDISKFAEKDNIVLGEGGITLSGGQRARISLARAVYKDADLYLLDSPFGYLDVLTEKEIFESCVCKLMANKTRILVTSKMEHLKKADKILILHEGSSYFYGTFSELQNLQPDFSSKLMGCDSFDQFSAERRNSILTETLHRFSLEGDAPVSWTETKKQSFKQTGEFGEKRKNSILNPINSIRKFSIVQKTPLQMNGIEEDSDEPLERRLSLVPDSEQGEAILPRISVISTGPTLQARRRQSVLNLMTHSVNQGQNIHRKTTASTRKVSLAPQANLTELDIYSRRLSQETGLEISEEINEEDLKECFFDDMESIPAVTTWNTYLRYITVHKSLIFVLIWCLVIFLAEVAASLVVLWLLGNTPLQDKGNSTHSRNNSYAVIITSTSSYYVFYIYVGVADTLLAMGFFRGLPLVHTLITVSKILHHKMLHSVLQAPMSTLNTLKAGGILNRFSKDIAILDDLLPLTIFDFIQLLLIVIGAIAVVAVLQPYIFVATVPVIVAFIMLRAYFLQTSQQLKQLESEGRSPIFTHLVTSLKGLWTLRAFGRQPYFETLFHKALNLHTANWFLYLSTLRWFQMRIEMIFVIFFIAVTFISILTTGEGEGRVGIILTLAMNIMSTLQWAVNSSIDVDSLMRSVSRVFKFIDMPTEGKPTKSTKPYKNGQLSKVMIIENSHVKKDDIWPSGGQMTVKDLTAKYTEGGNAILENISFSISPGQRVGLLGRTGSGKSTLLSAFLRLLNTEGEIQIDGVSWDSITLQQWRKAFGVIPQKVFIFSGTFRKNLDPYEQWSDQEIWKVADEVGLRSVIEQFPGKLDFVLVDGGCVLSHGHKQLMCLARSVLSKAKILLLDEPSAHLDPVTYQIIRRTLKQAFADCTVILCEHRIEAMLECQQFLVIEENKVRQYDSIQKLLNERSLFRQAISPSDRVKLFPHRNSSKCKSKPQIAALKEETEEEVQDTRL

Take `Cc1ccc(F)c2[nH]c3c(c12)C(C)N(C(=O)c1cc(C(F)(F)F)[nH]n1)CC3` (racemic) [Compound 32, (±)-(6-Fluoro-1,9-dimethyl-1,3,4,5-tetrahydro-2H-pyrido[4,3-b]indol-2-yl)-(5-(trifluoromethyl)-1H-pyrazol-3-yl)methanone]: the EC50 (commonly the concentration giving half of the maximal effect) amounted to 0.03 ± 0.02 µM and the Emax is given as 1.0 ± 0.3.
In the same order, the values of `Cc1ccc(F)c2[nH]c3c(c12)CN(C(=O)c1cc(C(F)(F)F)[nH]n1)C(C)C3` (racemic) [Compound 33, (±)-(6-Fluoro-3,9-dimethyl-1,3,4,5-tetrahydro-2H-pyrido[4,3-b]indol-2-yl)-(5-(trifluoromethyl)-1H-pyrazol-3-yl)methanone] are 0.022 ± 0.011 µM and 0.95 ± 0.27.
For `Cc1ccc(F)c2[nH]c3c(c12)C1CCC(C3)N1C(=O)c1cc(C(F)(F)F)[nH]n1` (racemic) [Compound 35, (±)-(4-Fluoro-1-methyl-5,6,7,8,9,10-hexahydro-7,10-epiminocyclohepta[b]indol-11-yl)-(5-(trifluoromethyl)-1H-pyrazol-3-yl)methanone], in that order: 1.3 ± 0.3 µM and 0.82 ± 0.07.
For the compound `Cc1ccc(F)c2[nH]c3c(c12)[C@H]1CC[C@@H](C3)N1C(=O)c1cc(C(F)(F)F)[nH]n1` (single isomer, unassigned) [Compound 36, (R)- or (S)-(4-Fluoro-1-methyl-5,6,7,8,9,10-hexahydro-7,10-epiminocyclohepta[b]indol-11-yl)(5-(trifluoromethyl)-1H-pyrazol-3-yl)methanone], the “activity on F508del-CFTR FRT cells (in words)” value was “completely inactive”.
On to `Cc1ccc(F)c2[nH]c3c(c12)C1CCC(C3)N1C(=O)c1cc(C(F)(F)F)[nH]n1` (single isomer, unassigned) [Compound 37, (S)- or (R)-(4-Fluoro-1-methyl-5,6,7,8,9,10-hexahydro-7,10-epiminocyclohepta[b]indol-11-yl)(5-(trifluoromethyl)-1H-pyrazol-3-yl)methanone], for which the “activity on F508del-CFTR FRT cells (in words)” value is recorded as “retained some activity”, the EC50 was determined as 0.54 ± 0.04 µM and the Emax came to 0.95 ± 0.01.
`Cc1ccc(F)c2[nH]c3c(c12)C(C)N(C(=O)c1cc(C(F)(F)F)[nH]n1)CC3` (single isomer, unassigned) [Compound 41, (R)- or (S)-(6-Fluoro-1,9-dimethyl-1,3,4,5-tetrahydro-2H-pyrido[4,3-b]indol-2-yl)-(5-(trifluoromethyl)-1H-pyrazol-3-yl)methanone]: the half-maximal effective concentration (EC50) was determined as 0.08 ± 0.02 µM and the Emax came to 1.0 ± 0.22.
In the same order, the values of `Cc1ccc(F)c2[nH]c3c(c12)C(C)N(C(=O)c1cc(C(F)(F)F)[nH]n1)CC3` (single isomer, unassigned) [Compound 42, (S)- or (R)-(6-Fluoro-1,9-dimethyl-1,3,4,5-tetrahydro-2H-pyrido[4,3-b]indol-2-yl)-(5-(trifluoromethyl)-1H-pyrazol-3-yl)methanone] are 0.05 ± 0.01 µM and 0.9 ± 0.3.
Consider `O=C(c1cnn(-c2ccccc2)c1)N1CCc2[nH]c3ccccc3c2C1` [Compound 2, (1-Phenyl-1H-pyrazol-4-yl)-(1,3,4,5-tetrahydro-2H-pyrido[4,3-b]indol-2-yl)methanone], for which the EC50 was 4.1 ± 1.3 µM and the Emax turned out to be 0.79 ± 0.13.
As to `COc1ccc2[nH]c3c(c2c1)CN(C(=O)c1cc[nH]n1)CC3` [Compound 4, (8-Methoxy-1,3,4,5-tetrahydropyrido[4,3-b]indol-2-yl)-(1H-pyrazol-3-yl)methanone], the EC50 is 10.6 ± 1.3 µM, the “Emax (FRT F508del-CFTR)” value was 0.17 ± 0.03 and the Emax was determined as 0.17 ± 0.03.
For `COc1ccc2[nH]c3c(c2c1)CN(C(=O)c1cc(C)[nH]n1)CC3` [Compound 5, (8-Methoxy-1,3,4,5-tetrahydro-2H-pyrido[4,3-b]indol-2-yl)-(5-methyl-1H-pyrazol-3-yl)methanone], the half-maximal effective concentration (EC50) turned out to be 60 ± 4 µM, the “Emax (FRT F508del-CFTR)” value is recorded as 0.59 ± 0.11 and the Emax was found to be 0.59 ± 0.11.
For `COc1ccc2[nH]c3c(c2c1)CN(C(=O)c1cc(C(C)C)[nH]n1)CC3` [Compound 6, (8-Methoxy-1,3,4,5-tetrahydro-2H-pyrido-(5-isopropyl-1H-pyrazol-3-yl)-[4,3-b]indol-2-yl)methanone], the EC50 is 5.7 ± 0.7 µM, the “Emax (FRT F508del-CFTR)” value worked out at 0.95 ± 0.08 and the Emax is recorded as 0.95 ± 0.08.
`COc1ccc2[nH]c3c(c2c1)CN(C(=O)c1cc(-c2ccccc2)[nH]n1)CC3` [Compound 7, (8-Methoxy-1,3,4,5-tetrahydro-2H-pyrido[4,3-b]indol-2-yl)-(5-phenyl-1H-pyrazol-3-yl)methanone]: the EC50 is 0.82 ± 0.17 µM, the “Emax (FRT F508del-CFTR)” value stood at 0.84 ± 0.23 and the Emax is reported as 0.84 ± 0.23.
In the case of `COc1ccc2[nH]c3c(c2c1)CN(C(=O)c1c[nH]c(C(F)(F)F)n1)CC3` [Compound 8, (8-Methoxy-1,3,4,5-tetrahydro-2H-pyrido[4,3-b]indol-2-yl)-(2-(trifluoromethyl)-1H-imidazol-4-yl)methanone], the EC50 turned out to be 2.8 ± 0.8 µM and the Emax was found to be 0.59 ± 0.14.
In the same order, the values of `COc1ccc2[nH]c3c(c2c1)CN(C(=O)c1ccc(Br)o1)CC3` [Compound 9, (8-Methoxy-1,3,4,5-tetrahydro-2H-pyrido[4,3-b]indol-2-yl)-(5-bromofuran-2-yl)methanone] are 3.7 ± 1.1 µM and 0.94 ± 0.11.
Turning to `COc1ccc2[nH]c3c(c2c1)CN(C(=O)c1cc2ccc(N(C)C)cc2[nH]1)CC3` [Compound 10, (8-Methoxy-1,3,4,5-tetrahydro-2H-pyrido[4,3-b]indol-2-yl)-(6-(dimethylamino)-1H-indol-2-yl)methanone], the EC50 was 0.15 ± 0.02 µM, the “Emax (FRT F508del-CFTR)” value was found to be 0.91 ± 0.12 and the Emax is listed as 0.91 ± 0.12.
Consider `COc1ccc2[nH]c3c(c2c1)CN(C(=O)c1cc(C(F)(F)F)n(C)n1)CC3` [Compound 11, (8-Methoxy-1,3,4,5-tetrahydro-2H-pyrido[4,3-b]indol-2-yl)-(1-methyl-5-(trifluoromethyl)-1H-pyrazol-3-yl)methanone], for which the EC50 turned out to be 7.1 ± 1.6 µM, the “Emax (FRT F508del-CFTR)” value amounted to 1.20 ± 0.08 and the Emax is reported as 1.20 ± 0.08.
Regarding `COc1ccc2c(c1)c1c(n2C)CCN(C(=O)c2cc(C(F)(F)F)[nH]n2)C1` [Compound 12, (8-Methoxy-5-methyl-1,3,4,5-tetrahydro-2H-pyrido[4,3-b]indol-2-yl)-(5-(trifluoromethyl)-1H-pyrazol-3-yl)methanone], the EC50 was 2.1 ± 0.7 µM, the “Emax (FRT F508del-CFTR)” value stood at 0.85 ± 0.06 and the Emax was 0.85 ± 0.06.
In the case of `O=C(c1cc(C(F)(F)F)[nH]n1)N1CCc2[nH]c3ccccc3c2C1` [Compound 13, (1,3,4,5-Tetrahydro-2H-pyrido[4,3-b]indol-2-yl)-(5-(trifluoromethyl)-1H-pyrazol-3-yl)methanone], the EC50 was found to be 0.23 ± 0.05 µM and the Emax amounted to 1.05 ± 0.17.
In the same order, the values of `Cc1ccc2[nH]c3c(c2c1)CN(C(=O)c1cc(C(F)(F)F)[nH]n1)CC3` [Compound 14, (8-Methyl-1,3,4,5-tetrahydro-2H-pyrido[4,3-b]indol-2-yl)-(5-(trifluoromethyl)-1H-pyrazol-3-yl)methanone] are 0.27 ± 0.09 µM and 0.95 ± 0.11.
